What was measured:
Assay in all cases: radiometric filter-binding kinase assay
ROCK2 (rat) = settings: accession and sequence are those of the human protein
BRSK2 (human) = BRSK2 (human) (UniProt Q8IWQ3)
ULK1 (human) = ULK1 (human) (UniProt O75385)
PTK6 (human) = PTK6 (human) (UniProt Q13882)
HIPK1 (human) = HIPK1 (human) (UniProt Q86Z02)
TESK1 (human) = TESK1 (human) (UniProt Q15569)
RIPK2 (human) = RIPK2 (human) (UniProt O43353); settings: compound 1.0 µM
MAPKAPK2 (human) = MAPKAPK2 (human) (UniProt P49137)
EPHA2 (human) = EPHA2 (human) (UniProt P29317)
Sequence of EPHA2 (human) (P29317 whole entry, looked up): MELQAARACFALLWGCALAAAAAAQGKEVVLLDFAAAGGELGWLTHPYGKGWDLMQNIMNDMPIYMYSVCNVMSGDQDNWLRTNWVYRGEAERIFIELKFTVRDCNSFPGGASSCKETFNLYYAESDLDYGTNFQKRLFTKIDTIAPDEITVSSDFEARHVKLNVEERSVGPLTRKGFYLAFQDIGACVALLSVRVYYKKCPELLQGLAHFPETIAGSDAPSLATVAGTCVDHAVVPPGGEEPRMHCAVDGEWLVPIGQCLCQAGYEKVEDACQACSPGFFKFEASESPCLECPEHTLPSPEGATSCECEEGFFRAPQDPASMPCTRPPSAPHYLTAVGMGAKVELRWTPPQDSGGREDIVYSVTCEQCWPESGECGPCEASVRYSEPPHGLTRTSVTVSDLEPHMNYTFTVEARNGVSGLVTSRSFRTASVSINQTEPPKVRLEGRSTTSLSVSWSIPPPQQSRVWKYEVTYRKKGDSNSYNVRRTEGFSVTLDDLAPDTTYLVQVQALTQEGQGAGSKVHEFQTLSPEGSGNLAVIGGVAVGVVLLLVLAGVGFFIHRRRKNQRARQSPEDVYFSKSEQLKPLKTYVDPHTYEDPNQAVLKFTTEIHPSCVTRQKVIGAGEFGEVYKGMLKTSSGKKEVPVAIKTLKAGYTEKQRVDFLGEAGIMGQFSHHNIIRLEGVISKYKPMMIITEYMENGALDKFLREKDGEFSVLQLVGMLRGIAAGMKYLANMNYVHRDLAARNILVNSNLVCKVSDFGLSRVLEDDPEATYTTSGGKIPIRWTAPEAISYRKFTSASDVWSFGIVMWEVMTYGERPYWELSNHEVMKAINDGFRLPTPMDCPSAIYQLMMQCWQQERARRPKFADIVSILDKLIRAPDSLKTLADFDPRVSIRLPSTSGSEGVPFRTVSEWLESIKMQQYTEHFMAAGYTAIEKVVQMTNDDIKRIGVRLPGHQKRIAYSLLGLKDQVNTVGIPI

MAPK11 (human) = MAPK11 (human) (UniProt Q15759)
TEK (human) = TEK (human) (UniProt Q02763)
STK33 (human) = STK33 (human) (UniProt Q9BYT3)
MAPK15 (human) = MAPK15 (human) (UniProt Q8TD08)
MARK2 (human) = MARK2 (human) (UniProt Q7KZI7)
[1] = test system: AKT1 (human), P31749 [S473D]
PDPK1 (human) = PDPK1 (human) (UniProt O15530); settings: compound 1.0 µM
MAPK13 (human) = MAPK13 (human) (UniProt O15264)
Sequence of MAPK13 (human) (O15264 whole entry, looked up): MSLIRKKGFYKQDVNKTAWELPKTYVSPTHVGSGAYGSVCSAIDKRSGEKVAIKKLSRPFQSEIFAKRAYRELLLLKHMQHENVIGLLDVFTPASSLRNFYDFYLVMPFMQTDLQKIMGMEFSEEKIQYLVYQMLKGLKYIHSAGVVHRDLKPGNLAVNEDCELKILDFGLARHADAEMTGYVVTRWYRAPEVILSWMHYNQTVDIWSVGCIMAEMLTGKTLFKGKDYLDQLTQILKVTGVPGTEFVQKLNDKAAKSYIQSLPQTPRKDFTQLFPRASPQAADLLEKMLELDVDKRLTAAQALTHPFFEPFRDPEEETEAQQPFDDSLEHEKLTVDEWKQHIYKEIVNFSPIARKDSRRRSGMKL

INSRR (human) = INSRR (human) (UniProt P14616)
Sequence of INSRR (human) (P14616 whole entry, looked up): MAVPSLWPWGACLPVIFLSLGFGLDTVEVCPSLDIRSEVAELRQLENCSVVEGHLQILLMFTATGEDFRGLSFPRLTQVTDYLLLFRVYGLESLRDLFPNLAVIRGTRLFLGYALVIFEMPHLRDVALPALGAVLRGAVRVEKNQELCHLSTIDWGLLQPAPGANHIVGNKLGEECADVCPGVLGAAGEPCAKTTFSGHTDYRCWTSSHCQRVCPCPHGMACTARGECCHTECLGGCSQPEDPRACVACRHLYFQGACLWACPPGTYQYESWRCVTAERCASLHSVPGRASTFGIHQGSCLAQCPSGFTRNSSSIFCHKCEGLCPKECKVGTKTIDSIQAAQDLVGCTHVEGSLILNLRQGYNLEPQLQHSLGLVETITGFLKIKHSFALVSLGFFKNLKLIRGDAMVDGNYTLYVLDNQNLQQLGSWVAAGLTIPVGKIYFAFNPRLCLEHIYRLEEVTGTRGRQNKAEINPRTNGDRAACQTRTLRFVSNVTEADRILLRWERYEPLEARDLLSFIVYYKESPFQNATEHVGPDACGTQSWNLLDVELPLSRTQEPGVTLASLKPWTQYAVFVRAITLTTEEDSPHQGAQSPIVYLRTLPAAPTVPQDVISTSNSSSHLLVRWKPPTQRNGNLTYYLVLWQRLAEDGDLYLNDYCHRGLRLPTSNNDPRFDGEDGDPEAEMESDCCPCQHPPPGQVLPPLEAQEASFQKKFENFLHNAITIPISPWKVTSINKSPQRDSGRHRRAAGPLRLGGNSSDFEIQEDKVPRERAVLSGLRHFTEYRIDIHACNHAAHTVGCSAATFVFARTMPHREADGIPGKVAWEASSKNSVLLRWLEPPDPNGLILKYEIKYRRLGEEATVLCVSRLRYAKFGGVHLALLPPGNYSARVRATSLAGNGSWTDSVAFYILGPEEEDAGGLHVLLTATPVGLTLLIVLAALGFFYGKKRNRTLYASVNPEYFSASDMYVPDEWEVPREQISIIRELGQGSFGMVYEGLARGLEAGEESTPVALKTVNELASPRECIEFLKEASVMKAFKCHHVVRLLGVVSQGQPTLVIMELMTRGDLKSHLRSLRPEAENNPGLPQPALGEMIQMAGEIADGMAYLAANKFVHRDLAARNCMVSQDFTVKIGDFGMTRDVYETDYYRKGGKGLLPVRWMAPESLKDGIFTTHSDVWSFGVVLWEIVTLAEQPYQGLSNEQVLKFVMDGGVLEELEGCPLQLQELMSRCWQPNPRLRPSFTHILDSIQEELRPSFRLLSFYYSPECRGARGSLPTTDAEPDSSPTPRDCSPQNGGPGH

MAP3K9 (human) = MAP3K9 (human) (UniProt P80192)
PLK1 (human) = PLK1 (human) (UniProt P53350)
EPHB4 (human) = EPHB4 (human) (UniProt P54760)
Sequence of EPHB4 (human) (P54760 whole entry, looked up): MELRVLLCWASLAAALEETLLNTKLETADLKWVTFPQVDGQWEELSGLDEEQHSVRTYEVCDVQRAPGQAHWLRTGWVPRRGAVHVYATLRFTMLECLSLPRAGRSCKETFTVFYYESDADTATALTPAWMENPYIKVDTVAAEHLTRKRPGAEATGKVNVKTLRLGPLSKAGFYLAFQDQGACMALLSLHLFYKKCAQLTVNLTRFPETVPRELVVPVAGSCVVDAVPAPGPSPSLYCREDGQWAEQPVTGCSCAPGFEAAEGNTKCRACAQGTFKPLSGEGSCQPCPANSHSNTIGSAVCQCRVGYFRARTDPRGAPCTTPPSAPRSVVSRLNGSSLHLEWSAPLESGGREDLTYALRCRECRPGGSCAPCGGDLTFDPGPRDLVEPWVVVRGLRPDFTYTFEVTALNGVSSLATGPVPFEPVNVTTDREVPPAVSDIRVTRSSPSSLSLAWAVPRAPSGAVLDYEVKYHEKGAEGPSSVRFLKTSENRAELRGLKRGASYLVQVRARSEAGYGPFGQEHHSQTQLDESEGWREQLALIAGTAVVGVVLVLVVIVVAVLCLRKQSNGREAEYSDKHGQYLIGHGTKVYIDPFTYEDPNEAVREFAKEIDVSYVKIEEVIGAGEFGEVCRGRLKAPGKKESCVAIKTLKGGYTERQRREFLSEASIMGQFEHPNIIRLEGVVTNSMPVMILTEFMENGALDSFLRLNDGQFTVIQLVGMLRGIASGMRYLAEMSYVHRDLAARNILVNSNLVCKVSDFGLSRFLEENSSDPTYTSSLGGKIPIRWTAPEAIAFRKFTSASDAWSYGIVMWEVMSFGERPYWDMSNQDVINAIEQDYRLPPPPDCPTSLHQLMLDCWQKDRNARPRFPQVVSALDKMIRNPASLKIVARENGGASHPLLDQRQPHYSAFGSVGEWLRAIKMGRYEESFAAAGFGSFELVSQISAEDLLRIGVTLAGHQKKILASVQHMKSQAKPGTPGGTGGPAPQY

PAK6 (human) = PAK6 (human) (UniProt Q9NQU5)
MAP3K1 (human) = MAP3K1 (human) (UniProt Q13233)
MINK1 (human) = MINK1 (human) (UniProt Q8N4C8)
SIK3 (human) = SIK3 (human) (UniProt Q9Y2K2)
CSK (human) = CSK (human) (UniProt P41240)
STK16 (human) = STK16 (human) (UniProt O75716)
DYRK1A (human) = DYRK1A (human) (UniProt Q13627); settings: compound 1.0 µM
AURKB (human) = AURKB (human) (UniProt Q96GD4)
Sequence of AURKB (human) (Q96GD4 whole entry, looked up): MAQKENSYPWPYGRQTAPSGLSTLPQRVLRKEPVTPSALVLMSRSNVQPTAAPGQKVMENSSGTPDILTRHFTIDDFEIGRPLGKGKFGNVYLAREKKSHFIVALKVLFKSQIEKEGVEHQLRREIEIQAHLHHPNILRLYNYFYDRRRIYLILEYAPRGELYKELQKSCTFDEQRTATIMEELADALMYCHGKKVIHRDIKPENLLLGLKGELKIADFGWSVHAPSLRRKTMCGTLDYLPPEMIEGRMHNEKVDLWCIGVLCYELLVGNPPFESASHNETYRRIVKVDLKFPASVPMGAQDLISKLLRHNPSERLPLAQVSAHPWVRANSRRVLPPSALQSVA

TSSK1B (human) = TSSK1B (human) (UniProt Q9BXA7)
STK11 (human) = STK11 (human) (UniProt Q15831)
MAPK3 (human) = MAPK3 (human) (UniProt P27361)
Sequence of MAPK3 (human) (P27361 whole entry, looked up): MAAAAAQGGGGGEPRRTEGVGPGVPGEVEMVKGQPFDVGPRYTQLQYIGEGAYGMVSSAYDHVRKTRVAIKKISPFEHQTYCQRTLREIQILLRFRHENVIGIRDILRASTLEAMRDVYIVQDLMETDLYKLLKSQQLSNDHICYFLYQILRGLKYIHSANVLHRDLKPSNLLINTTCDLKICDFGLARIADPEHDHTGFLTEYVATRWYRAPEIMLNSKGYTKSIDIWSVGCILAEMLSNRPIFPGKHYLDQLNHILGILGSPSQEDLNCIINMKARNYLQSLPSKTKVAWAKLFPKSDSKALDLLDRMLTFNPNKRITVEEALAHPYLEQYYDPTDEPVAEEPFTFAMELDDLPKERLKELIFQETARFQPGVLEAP

IRAK4 (human) = IRAK4 (human) (UniProt Q9NWZ3)

Sequence of TESK1 (human) (Q15569 whole entry, looked up): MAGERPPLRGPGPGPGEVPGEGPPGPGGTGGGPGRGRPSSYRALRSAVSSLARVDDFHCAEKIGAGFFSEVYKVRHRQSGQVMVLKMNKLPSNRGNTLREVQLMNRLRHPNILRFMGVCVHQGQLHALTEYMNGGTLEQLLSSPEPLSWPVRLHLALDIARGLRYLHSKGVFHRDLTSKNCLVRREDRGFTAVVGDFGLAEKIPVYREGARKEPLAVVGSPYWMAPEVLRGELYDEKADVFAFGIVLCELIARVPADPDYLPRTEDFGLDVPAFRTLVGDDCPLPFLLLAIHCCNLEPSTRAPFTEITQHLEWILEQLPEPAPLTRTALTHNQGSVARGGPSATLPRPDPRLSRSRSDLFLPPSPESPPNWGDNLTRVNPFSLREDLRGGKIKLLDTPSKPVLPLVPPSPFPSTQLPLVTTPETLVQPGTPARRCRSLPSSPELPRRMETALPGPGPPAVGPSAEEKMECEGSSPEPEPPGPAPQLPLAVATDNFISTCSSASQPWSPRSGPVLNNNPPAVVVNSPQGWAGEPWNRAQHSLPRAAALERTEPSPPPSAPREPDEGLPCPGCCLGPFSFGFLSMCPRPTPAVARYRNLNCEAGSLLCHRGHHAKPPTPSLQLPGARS

`CNc1nc(Nc2ccc(C(=O)N3CCOCC3)cc2OC)ncc1Cl` showed a residual activity (ROCK2 (rat); compound 1.0 µM) of 87%, a residual activity (ROCK2 (rat); compound 10.0 µM) of 71% and a residual activity (BRSK2 (human); compound 1.0 µM) of 78%. The residual activity (BRSK2 (human); compound 10.0 µM) was 64%, the residual activity (ULK1 (human); compound 1.0 µM) was 62% and the residual activity (ULK1 (human); compound 10.0 µM) was 85%. It also gave a residual activity (PTK6 (human); compound 1.0 µM) of 56%, a residual activity (PTK6 (human); compound 10.0 µM) of 39% and a residual activity (HIPK1 (human); compound 1.0 µM) of 77%. It also gave a residual activity (HIPK1 (human); compound 10.0 µM) of 94%, a residual activity (TESK1 (human); compound 1.0 µM) of 90% and a residual activity (TESK1 (human); compound 10.0 µM) of 83%. For the same compound, the residual activity (RIPK2 (human)) was 79%, the residual activity (MAPKAPK2 (human); compound 1.0 µM) was 88% and the residual activity (MAPKAPK2 (human); compound 10.0 µM) was 102%. The residual activity (EPHA2 (human); compound 1.0 µM) was 93%, the residual activity (EPHA2 (human); compound 10.0 µM) was 97% and the residual activity (MAPK11 (human); compound 1.0 µM) was 57%. For the same compound, the residual activity (MAPK11 (human); compound 10.0 µM) was 93%, the residual activity (TEK (human); compound 1.0 µM) was 79% and the residual activity (TEK (human); compound 10.0 µM) was 90%. It also gave a residual activity (STK33 (human); compound 1.0 µM) of 61%, a residual activity (STK33 (human); compound 10.0 µM) of 28% and a residual activity (MAPK15 (human); compound 1.0 µM) of 74%. It also gave a residual activity (MAPK15 (human); compound 10.0 µM) of 82%, a residual activity (MARK2 (human); compound 1.0 µM) of 85% and a residual activity (MARK2 (human); compound 10.0 µM) of 90%. For the same compound, the residual activity ([1]; compound 1.0 µM) was 53%, the residual activity ([1]; compound 10.0 µM) was 85% and the residual activity (PDPK1 (human)) was 102%. It also gave a residual activity (MAPK13 (human); compound 1.0 µM) of 87%, a residual activity (MAPK13 (human); compound 10.0 µM) of 86% and a residual activity (INSRR (human); compound 1.0 µM) of 126%. For the same compound, the residual activity (INSRR (human); compound 10.0 µM) was 97%, the residual activity (MAP3K9 (human); compound 1.0 µM) was 38% and the residual activity (MAP3K9 (human); compound 10.0 µM) was 18%. For the same compound, the residual activity (PLK1 (human); compound 1.0 µM) was 97%, the residual activity (PLK1 (human); compound 10.0 µM) was 105% and the residual activity (EPHB4 (human); compound 1.0 µM) was 94%. For the same compound, the residual activity (EPHB4 (human); compound 10.0 µM) was 113%, the residual activity (PAK6 (human); compound 1.0 µM) was 90% and the residual activity (PAK6 (human); compound 10.0 µM) was 98%. The residual activity (MAP3K1 (human); compound 1.0 µM) was 93%, the residual activity (MAP3K1 (human); compound 10.0 µM) was 98% and the residual activity (MINK1 (human); compound 1.0 µM) was 86%. It also gave a residual activity (MINK1 (human); compound 10.0 µM) of 96%, a residual activity (SIK3 (human); compound 1.0 µM) of 93% and a residual activity (SIK3 (human); compound 10.0 µM) of 82%. The residual activity (CSK (human); compound 1.0 µM) was 97%, the residual activity (CSK (human); compound 10.0 µM) was 103% and the residual activity (STK16 (human); compound 1.0 µM) was 100%. It also gave a residual activity (STK16 (human); compound 10.0 µM) of 97%, a residual activity (DYRK1A (human)) of 79% and a residual activity (AURKB (human); compound 1.0 µM) of 83%. The residual activity (AURKB (human); compound 10.0 µM) was 42%, the residual activity (TSSK1B (human); compound 1.0 µM) was 51% and the residual activity (TSSK1B (human); compound 10.0 µM) was 19%. It also gave a residual activity (STK11 (human); compound 1.0 µM) of 92%, a residual activity (STK11 (human); compound 10.0 µM) of 90% and a residual activity (MAPK3 (human); compound 1.0 µM) of 95%. For the same compound, the residual activity (MAPK3 (human); compound 10.0 µM) was 104%, the residual activity (IRAK4 (human); compound 1.0 µM) was 90% and the residual activity (IRAK4 (human); compound 10.0 µM) was 86%.

Source: the kinase profiling compilation of Christmann-Franck et al. (2016)
